Source: ChEMBL document CHEMBL1136704, “3-amino-4-sulfonylpyridinone acetamide and related pyridothiadiazine thrombin inhibitors” (Bioorg Med Chem Lett, 2003)

Key:
[1] = Protein binding activity of compound in human plasma; % Free; format: ADME, cell-free
Homo sapiens = species on record: Homo sapiens; test: Anticoagulant potency, activated partial thromboplastin time assay; format: functional
Prothrombin = Prothrombin (Homo sapiens, UniProt P00734); test: Inhibition of human thrombin
Serine protease 1 = Serine protease 1 (Homo sapiens, UniProt P07477); test: Inhibitory activity against human trypsin
Rattus norvegicus = species on record: Rattus norvegicus; test: Final plasma concentration in the rat ferric chloride thrombosis model; conditions: in vivo
[2] = Cmax value in dog; format: ADME, organism-based, Canis lupus familiaris; conditions: in vivo
[3] = Pharmacokinetic property (Area under curve); format: ADME
[4] = Half life period was determined; conditions: dog
[5] = Cmax value in dogs after oral administration at 1 mg/kg; format: ADME, organism-based, Canis lupus familiaris; design: dose 1 mg/kg, route oral; conditions: dog, in vivo
[6] = Pharmacokinetic property in dogs after oral administration at 1 mg/kg; format: ADME, organism-based, Canis lupus familiaris; design: dose 1 mg/kg, route oral; conditions: dog, in vivo
[7] = Half life period in dogs after oral administration at 1 mg/kg; format: ADME, organism-based, Canis lupus familiaris; design: dose 1 mg/kg, route oral; conditions: dog, in vivo

Chain of Serine protease 1 (P07477 whole entry): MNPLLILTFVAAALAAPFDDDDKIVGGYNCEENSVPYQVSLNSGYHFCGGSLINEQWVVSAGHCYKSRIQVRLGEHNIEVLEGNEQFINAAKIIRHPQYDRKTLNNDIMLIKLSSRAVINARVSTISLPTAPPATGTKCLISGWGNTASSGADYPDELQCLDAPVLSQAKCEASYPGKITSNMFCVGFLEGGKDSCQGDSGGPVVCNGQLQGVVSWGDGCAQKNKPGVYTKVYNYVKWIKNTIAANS

Free [1] | Ki (Serine protease 1) | Cmax [5] | AUC [6] | half-life [7] | SMILES | Concentration (Homo sapiens) | Ki (Prothrombin) | concentration (Rattus norvegicus) | Cmax [2] | AUC [3] | half-life [4]
23% | 740 nM |  |  |  | Cc1nc(N)ccc1CNC(=O)Cn1c(C)cc(S(=O)(=O)NCC2CCC2)c(N)c1=O | 0.47 µM | 0.75 nM | 640 nM |  |  | 
38% | 260 nM |  |  |  | Cc1nc(N)ccc1CNC(=O)Cn1c(C)cc(S(=O)(=O)C2CCCCC2)c(N)c1=O | 0.75 µM | 3 nM | 650 nM |  |  | 
25% | 6100 nM |  |  |  | Cc1nc(N)ccc1CNC(=O)Cn1c(C)cc2c(c1=O)NCN(CC1CC1)S2(=O)=O | 0.79 µM | 2.1 nM |  | 590 nM | 2.14 µM·h | 2.27 h
 | 1600 nM |  |  |  | Cc1nc(N)ccc1CNC(=O)Cn1c(C)cc2c(c1=O)NCN(CC1CCC1)S2(=O)=O | 0.92 µM |  |  |  |  | 
 | 6300 nM |  |  |  | Cc1nc(N)ccc1CNC(=O)Cn1c(C)cc2c(c1=O)NCN(C1CCC1)S2(=O)=O | 1.11 µM |  |  |  |  | 
53% | 1000 nM |  |  |  | Cc1nc(N)ccc1CNC(=O)Cn1c(C)cc(S(=O)(=O)NCC2CC2)c(N)c1=O | 0.75 µM |  |  |  |  | 
 | 10000 nM |  |  |  | Cc1nc(N)ccc1CNC(=O)Cn1c(C)cc2c(c1=O)NCN(C1CC1)S2(=O)=O | 0.75 µM |  |  |  |  | 
 | 800 nM |  |  |  | Cc1ccc(S(=O)(=O)c2cc(C)n(CC(=O)NCc3ccc(N)nc3C)c(=O)c2N)cc1 |  | 94 nM |  |  |  | 
22% | 1600 nM | 450 nM | 0.62 µM·h | 1.05 h | Cc1nc(N)ccc1CNC(=O)Cn1c(C)cc(S(=O)(=O)Cc2ccccc2)c(N)c1=O | 0.47 µM |  |  |  |  | 
 | 2900 nM |  |  |  | Cc1nc(N)ccc1CNC(=O)Cn1c(C)cc(S(=O)(=O)NC2CC2)c(N)c1=O | 0.85 µM |  |  |  |  | 
40% | 340 nM |  |  |  | Cc1nc(N)ccc1CNC(=O)Cn1c(C)cc(S(=O)(=O)c2cccs2)c(N)c1=O | 0.39 µM | 1.7 nM | 430 nM |  |  | 
45% | 1100 nM |  |  |  | Cc1nc(N)ccc1CNC(=O)Cn1c(C)cc(S(=O)(=O)NC2CCC2)c(N)c1=O | 0.35 µM |  |  |  |  | 

SMILES | Free [1] | Ki (Serine protease 1) | Cmax [5] | AUC [6] | half-life [7] | Concentration (Homo sapiens) | Ki (Prothrombin) | concentration (Rattus norvegicus) | Cmax [2] | AUC [3] | half-life [4]
Cc1nc(N)ccc1CNC(=O)Cn1c(C)cc(S(=O)(=O)c2ccccc2)c(N)c1=O | 19% | 500 nM |  |  |  | 0.66 µM | 3.8 nM | 570 nM |  |  | 
Cc1nc(N)ccc1CNC(=O)Cn1c(C)cc(S(=O)(=O)C2CC2)c(N)c1=O |  | 2800 nM |  |  |  | 1.64 µM | 17 nM |  |  |  | 
Cc1nc(N)ccc1CNC(=O)Cn1c(C)cc(S(=O)(=O)CC2CC2)c(N)c1=O | 70% | 1900 nM |  |  |  | 0.4 µM | 1.8 nM | 550 nM | 370 nM | 0.8 µM·h | 1.1 h
Cc1nc(N)ccc1CNC(=O)Cn1c(C)cc(S(=O)(=O)CC2CCC2)c(N)c1=O | 45% | 550 nM |  |  |  | 0.23 µM | 0.2 nM | 680 nM | 570 nM | 2.58 µM·h | 0.783 h
Cc1nc(N)ccc1CNC(=O)Cn1c(C)cc(S(=O)(=O)CC2CCCC2)c(N)c1=O | 29% | 630 nM |  |  |  | 0.4 µM | 1.2 nM | 530 nM |  |  | 
